Assay [1] addresses T1, Peroxisome proliferator-activated receptor gamma (Homo sapiens) (UniProt P37231).
T1 sequence (whole entry): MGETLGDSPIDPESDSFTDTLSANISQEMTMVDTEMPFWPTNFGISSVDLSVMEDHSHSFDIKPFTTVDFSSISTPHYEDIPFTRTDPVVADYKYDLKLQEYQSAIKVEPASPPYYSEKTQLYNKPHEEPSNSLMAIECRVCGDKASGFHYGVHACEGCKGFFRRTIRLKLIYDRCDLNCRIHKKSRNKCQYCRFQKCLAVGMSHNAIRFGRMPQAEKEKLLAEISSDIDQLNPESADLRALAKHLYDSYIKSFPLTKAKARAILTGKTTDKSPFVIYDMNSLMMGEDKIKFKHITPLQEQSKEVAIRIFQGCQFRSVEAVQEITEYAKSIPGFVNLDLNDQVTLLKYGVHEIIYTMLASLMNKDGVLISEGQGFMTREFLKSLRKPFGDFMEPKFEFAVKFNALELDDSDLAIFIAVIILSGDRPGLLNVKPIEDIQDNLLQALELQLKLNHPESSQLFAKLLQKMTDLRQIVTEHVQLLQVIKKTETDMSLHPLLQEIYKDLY
As to the kind of experiment: Agonist activity at PPARgamma (unknown origin) at 1 uM by luciferase reporter gene assay.

The next assay deals with 3T3-L1. As to the kind of experiment: Antiadipogenic activity in mouse 3T3L1 cells assessed as inhibition of CDCA-induced intracellular lipid droplets after 6 days by Oil Red O staining based assay. It counts as functional, cell-based.
For assay [2], the target named is T1, Peroxisome proliferator-activated receptor gamma (Homo sapiens). As to the kind of experiment: Antagonist activity at PPARgamma (unknown origin) assessed as inhibition of GW1929-induced response at 1 uM by luciferase reporter gene assay. (In a reporter assay the amount or activity of a reporter protein is the signal.)

The structures appear in SMILES notation. The source made the active and inactive calls. No cut-off for these calls is given here.

For the compound `Cc1ccc2nc([C@H](CC3CCN(C(=O)C(C)C)CC3)N3C(=O)CN(c4ccc(Oc5ccccc5)cc4)C3=O)n(C)c2c1`, the outcome in assay [1] was inactive. Moreover, in the assay with 3T3-L1, the inhibition result was “Dose-dependent effect”. For the same compound, the inhibition result in assay [2] is “inactive”.

These data come from ChEMBL document CHEMBL4138296, “Nonacidic Chemotype Possessing N-Acylated Piperidine Moiety as Potent Farnesoid X Receptor (FXR) Antagonists” (ACS Med Chem Lett, 2018).
